Test system: murine B16 melanoma
Experiment: Antitumor effect in murine B16 melanoma model, tumor size and tumor weight (Example 2)
Format: in vivo, C57BL/6 mice
Settings: Day 12
Method: As per aseptic tissue culture procedures, one vial of B16 melanoma cells (supplied by Cell Culture Center of CAMS) was thawed and centrifuged at 1000 rpm, 20-25° C. for 5 minutes. The cell pellets were suspended in 0.1-0.5 mL normal saline (NS) and subcutaneously injected into the right axilla of each mouse (approximately 1×10^6 cells/mouse). When the tumor diameter was 1 cm approximately (measured by vernier caliper), the animals were euthanized with CO2 asphyxiation and the tumor was excised. Tumor cells were suspended in normal saline as previously described and the cell adaptation cycle was repeated once.
On Day 0, 1×10^6 B16 cells in a volume of 0.1 mL normal saline were subcutaneously injected into the right axillary area of the mouse. The day of tumor inoculation was defined as Day 0.
Dosing was initiated on Day 1.
Observations were recorded daily for mortality and moribundity. […] The tumors were excised, separated, and weighed.
Tumor volume was calculated using the following formula: Tumor Volume=Length×Width×Width/2 Tumor volume inhibition rate (IR) was calculated according to the formula: IR(TV)=(TVvehicle−TVdrug treated)/TVvehicle×100% TV is the tumor volume on the day of measurement.
The antitumor effect of the test article was also evaluated by tumor weight. The tumor weight of each mouse was recorded after euthanasia, and the inhibition rate of tumor weight was calculated according to the formula: IR(TW)=(Tumor weightvehicle−Tumor weightdrug treated)/Tumor weightvehicle×100%

## N[C@H](CCC(=O)N[C@@H](Cc1c[nH]c2ccccc12)C(=O)O)C(=O)O [SCV-07, γ-D-glutamyl-L-tryptophan]
Mouse F2, SCV-07 5.0 mg/kg sc
  Tumor measurements L: 1.0 cm
  Tumor measurements W: 1.0 cm
  Tumor volumes: 0.50 cm^3
Mouse F3, SCV-07 0.01 mg/kg sc
  Tumor measurements L: 0.1 cm
  Tumor measurements W: 0.1 cm
  Tumor volumes: 5E−04 cm^3
Mouse F3, SCV-07 0.1 mg/kg sc
  Tumor measurements L: 1.1 cm
  Tumor measurements W: 1.0 cm
  Tumor volumes: 0.55 cm^3
Mouse F3, SCV-07 1.0 mg/kg sc
  Tumor measurements L: 1.0 cm
  Tumor measurements W: 1.0 cm
  Tumor volumes: 0.50 cm^3
Mouse F3, SCV-07 5.0 mg/kg sc
  Tumor measurements L: 0.7 cm
  Tumor measurements W: 0.7 cm
  Tumor volumes: 0.17 cm^3
Mouse F4, SCV-07 0.01 mg/kg sc
  Tumor measurements L: 1.0 cm
  Tumor measurements W: 1.0 cm
  Tumor volumes: 0.50 cm^3
Mouse F4, SCV-07 0.1 mg/kg sc
  Tumor measurements L: 1.1 cm
  Tumor measurements W: 1.1 cm
  Tumor volumes: 0.67 cm^3
Mouse F4, SCV-07 1.0 mg/kg sc
  Tumor measurements L: 0.1 cm
  Tumor measurements W: 0.1 cm
  Tumor volumes: 0.00 cm^3
Mouse F4, SCV-07 5.0 mg/kg sc
  Tumor measurements L: 0.8 cm
  Tumor measurements W: 0.8 cm
  Tumor volumes: 0.26 cm^3
Mouse F5, SCV-07 0.01 mg/kg sc
  Tumor measurements L: 1.0 cm
  Tumor measurements W: 0.9 cm
  Tumor volumes: 0.41 cm^3
Mouse F5, SCV-07 0.1 mg/kg sc
  Tumor measurements L: 0.3 cm
  Tumor measurements W: 0.3 cm
  Tumor volumes: 0.01 cm^3
Mouse F5, SCV-07 1.0 mg/kg sc
  Tumor measurements L: 1.0 cm
  Tumor measurements W: 1.0 cm
  Tumor volumes: 0.50 cm^3
Mouse F5, SCV-07 5.0 mg/kg sc
  Tumor measurements L: 1.0 cm
  Tumor measurements W: 1.0 cm
  Tumor volumes: 0.50 cm^3
Mouse M1, SCV-07 0.01 mg/kg sc
  Tumor measurements L: 1.1 cm
  Tumor measurements W: 1.1 cm
  Tumor volumes: 0.67 cm^3
Mouse M1, SCV-07 0.1 mg/kg sc
  Tumor measurements L: 1.1 cm
  Tumor measurements W: 1.1 cm
  Tumor volumes: 0.67 cm^3
Mouse M1, SCV-07 1.0 mg/kg sc
  Tumor measurements L: 0.8 cm
  Tumor measurements W: 0.7 cm
  Tumor volumes: 0.20 cm^3
Mouse M1, SCV-07 5.0 mg/kg sc
  Tumor measurements L: 0.7 cm
  Tumor measurements W: 0.7 cm
  Tumor volumes: 0.17 cm^3
Mouse M2, SCV-07 0.01 mg/kg sc
  Tumor measurements L: 0.9 cm
  Tumor measurements W: 0.9 cm
  Tumor volumes: 0.36 cm^3
Mouse M2, SCV-07 0.1 mg/kg sc
  Tumor measurements L: 0.9 cm
  Tumor measurements W: 0.9 cm
  Tumor volumes: 0.36 cm^3
Mouse M2, SCV-07 1.0 mg/kg sc
  Tumor measurements L: 1.0 cm
  Tumor measurements W: 1.0 cm
  Tumor volumes: 0.50 cm^3
Mouse M2, SCV-07 5.0 mg/kg sc
  Tumor measurements L: 0.9 cm
  Tumor measurements W: 0.9 cm
  Tumor volumes: 0.36 cm^3
Mouse M3, SCV-07 0.01 mg/kg sc
  Tumor measurements L: 1.1 cm
  Tumor measurements W: 0.9 cm
  Tumor volumes: 0.45 cm^3
Mouse M3, SCV-07 0.1 mg/kg sc
  Tumor measurements L: 1.1 cm
  Tumor measurements W: 1.1 cm

Source: patent publication US8163702B2, “Treatment of melanoma” (SciClone Pharmaceuticals, Inc., priority 2006, dated 2012)
